This note sets out measurements from article PMC5215691 (2017).

The subject of test [1] is KBA 2 (DNA, aptamer) ATGCGGATCCCGCGCGACCAACGGAAGCGCGCCACCCCATCGGCGGCGCGAAGCTTGCGC
Kind of test: ELONA (biotin-aptamer, streptavidin-HRP). Particulars: for binding: immobilised compound, 1 μM aptamer.

Test [2] relates to FAM-labeled KBA 3-1 (DNA, aptamer) CGGAAGCGCGCCACCCCATCGGCGGGCGCGAAGCTTGCG
Kind of test: RGO fluorescence quenching/recovery. The note with it: 1X PBS pH 8.5, room temperature, 100 nM aptamer, 0.1 mg/mL RGO.

Test [3] deals with KBA 3-1 (DNA, aptamer) CGGAAGCGCGCCACCCCATCGGCGGGCGCGAAGCTTGCG
Kind of test: ELONA (biotin-aptamer, streptavidin-HRP). The note with it: for binding: immobilised compound, 1 μM aptamer.

For test [4], the system named is KBA 2-2 (DNA, aptamer) CGCCACCCCATCGGCGGCG
Description: ELONA (biotin-aptamer, streptavidin-HRP). Particulars: not given; 1X PBS/PBST (concentrations not given); immobilised compound (amide bond on NOS plate); apparent.

For test [5], the system named is KBA 1-2 (DNA, aptamer) CGCGCCGACGTCAGAGAGGCGCG
Kind of test: ELONA (biotin-aptamer, streptavidin-HRP). The note with it: not given; 1X PBS/PBST (concentrations not given); immobilised compound (amide bond on NOS plate); apparent.

Test [6] deals with KBA 3 (DNA, aptamer) ATGCGGATCCCGCGCACCAACGGAAGCGCGCCACCCCATCGGCGGGCGCGAAGCTTGCGC
Description: ELONA (biotin-aptamer, streptavidin-HRP). The note with it: not given; 1X PBS/PBST (concentrations not given); immobilised compound (amide bond on NOS plate); apparent.

Test [7] has as its system KBA 1 (DNA, aptamer) ATGCGGATCCCGCGCCGACGTCAGAGAGGCGCGCTGGTTTGCACCGCGCGAAGCTTGCGC
Kind of test: ELONA (biotin-aptamer, streptavidin-HRP). The note with it: not given; 1X PBS/PBST (concentrations not given); immobilised compound (amide bond on NOS plate); apparent.

The subject of test [8] is KBA 3-2 (DNA, aptamer) CGCCACCCCATCGGCGGGCG
Description: ELONA (biotin-aptamer, streptavidin-HRP). The note with it: not given; 1X PBS/PBST (concentrations not given); immobilised compound (amide bond on NOS plate); apparent.

Test [9] relates to KBA 2-1 (DNA, aptamer) CGGAAGCGCGCCACCCCATCGGCGGCGCGAAGCTTGCG
Description: ELONA (biotin-aptamer, streptavidin-HRP). The note with it: not given; 1X PBS/PBST (concentrations not given); immobilised compound (amide bond on NOS plate); apparent.

For test [10], the system named is KBA 1-1 (DNA, aptamer) ATGCGGATCCCGCGCCGACGTCAGAGAGGCGCGCTGGTTTGCAC
Kind of test: ELONA (biotin-aptamer, streptavidin-HRP). The note with it: not given; 1X PBS/PBST (concentrations not given); immobilised compound (amide bond on NOS plate); apparent.

The mark [11] stands for this setting: not given, 1X PBS/PBST (concentrations not given), immobilised compound (amide bond on NOS plate), apparent.

For `CC1(C)S[C@@H]2[C@H](NC(=O)[C@H](N)c3ccccc3)C(=O)N2[C@H]1C(=O)O`, the binding result in test [1] was “weak”; in test [2] (1 μM ampicillin), “no”; in test [3], “weak”.
Take `CN(C)[C@@H]1C(=O)C(C(N)=O)=C(O)[C@@]2(O)C(=O)C3=C(O)c4c(O)cccc4[C@@](C)(O)[C@H]3C[C@@H]12`: the binding result in [1], in test [2] (1 μM antibiotic) and in [3] was “weak” in each case.
On to `CN[C@@H]1[C@H](O[C@H]2[C@H](O[C@H]3[C@H](O)[C@@H](O)[C@H](N=C(N)N)[C@@H](O)[C@@H]3N=C(N)N)O[C@@H](C)[C@]2(O)C=O)O[C@@H](CO)[C@H](O)[C@H]1O`, for which the binding result in test [1], in [2] (1 μM antibiotic) and in test [3] was “weak” each time.
Turning to `CN[C@@H]1[C@H](O[C@H]2[C@H](O[C@H]3[C@H](O)[C@@H](O)[C@H](N=C(N)N)[C@@H](O)[C@@H]3N=C(N)N)O[C@@H](C)[C@]2(O)CO)O[C@@H](CO)[C@H](O)[C@H]1O`, the binding result in test [1], in test [2] (1 μM antibiotic) and in [3] was “weak” each time.
`NC[C@H]1O[C@H](O[C@H]2[C@H](O)[C@@H](O[C@H]3O[C@H](CO)[C@@H](O)[C@H](N)[C@H]3O)[C@H](N)C[C@@H]2N)[C@H](O)[C@@H](O)[C@@H]1O`: the “Kd^app” value in test [4] came out at 0.564 ± 0.0925 µM; in test [1] (setting [11]), 0.0347 ± 0.0356 µM; in [5] it was 0.669 ± 0.0107 µM; in [6] it was 0.341 ± 0.0128 µM; in test [7], 0.268 ± 0.0208 µM; in test [8] it was 0.239 ± 0.0525 µM. In addition, the “Kd^app” value in [9] came out at 0.182 ± 0.0572 µM; in [3] (setting [11]) it was 0.0923 ± 0.0291 µM; in test [10] it was 0.268 ± 0.0267 µM. Moreover, the binding entry in [2] (1 pM to 1 μM kanamycin) was “yes”.
